Test results as given in ChEMBL document CHEMBL1201862, “PubChem BioAssay data set” (2004).
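Tested at 5 concentrations; 48 h exposure; 96-well plates; endpoints linearly interpolated, else capped at highest concentration. GI50 = concentration required for 50% inhibition of growth.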 Activity calls are given as the source filed them. Cut-off read from the data, not from the text of the source: active = GI50 up to about 1.1 µM and inactive = higher.

Experiments:
Test in all cases: inhibition of tumour cell growth, NCI panel, 48 h
U-251 = test system: U-251
UACC-62 = test system: UACC-62
HL-60 = test system: HL-60
UO-31 = test system: UO-31
HT-29 = test system: HT-29
PC-3 = test system: PC-3
SK-MEL-2 = test system: SK-MEL-2
SF-295 = test system: SF-295
BT-549 = test system: BT-549
CAKI-1 = test system: CAKI-1
KM12 = test system: KM12
SW-620 = test system: SW-620
SK-OV-3 = test system: SK-OV-3
HOP-92 = test system: HOP-92
EKVX = test system: EKVX
SR = test system: SR
OVCAR-4 = test system: OVCAR-4
M14 = test system: M14

Compound | GI50 (U-251) | GI50 (UACC-62) | GI50 (HL-60) | GI50 (UO-31) | GI50 (HT-29) | GI50 (PC-3) | GI50 (SK-MEL-2) | GI50 (SF-295) | GI50 (BT-549) | GI50 (CAKI-1) | GI50 (KM12) | GI50 (SW-620) | GI50 (SK-OV-3) | GI50 (HOP-92) | GI50 (EKVX) | GI50 (SR) | GI50 (OVCAR-4) | GI50 (M14)
O=C(O)C12C3CCC(O3)C1(C(=O)O)C1CCC2O1 (centres undefined) | > 100 µM (inactive) | > 100 µM (inactive) | > 100 µM (inactive) | > 100 µM (inactive) | > 100 µM (inactive) | > 100 µM (inactive) | > 100 µM (inactive) | > 100 µM (inactive) | > 100 µM (inactive) | > 100 µM (inactive) | > 100 µM (inactive) | > 100 µM (inactive) | > 100 µM (inactive) |  |  |  |  | 
C1=CC2=CC=CC3c4nc5ccc6ccccc6c5nc4C(=C1)C23 (centres undefined) | > 100 µM (inactive) | > 100 µM (inactive) | > 100 µM (inactive) | > 100 µM (inactive) | > 100 µM (inactive) | > 100 µM (inactive) | > 100 µM (inactive) | > 100 µM (inactive) |  | > 100 µM (inactive) | > 100 µM (inactive) | > 100 µM (inactive) | > 100 µM (inactive) | > 100 µM (inactive) | > 100 µM (inactive) | > 100 µM (inactive) | > 100 µM (inactive) | > 100 µM (inactive)
CCCCCCCCCCCCOCC(COP(=O)(O)OCCN=[N+]=[N-])OC(=O)CCCCCCCCCCC (centres undefined) | > 100 µM (inactive) | > 100 µM (inactive) |  | > 100 µM (inactive) | > 100 µM (inactive) | > 100 µM (inactive) | > 100 µM (inactive) | > 100 µM (inactive) |  | > 100 µM (inactive) | > 100 µM (inactive) | > 100 µM (inactive) | > 100 µM (inactive) | > 100 µM (inactive) |  |  | 52.2 µM (inactive) | > 100 µM (inactive)
Cc1cc2[nH]c3c(C#N)c(-c4ccccc4)c(/N=N/c4ccc(F)cc4)c(=O)n3c2cc1C | 42.5 µM (inactive) |  |  | > 100 µM (inactive) |  | > 100 µM (inactive) | > 100 µM (inactive) | > 100 µM (inactive) | > 100 µM (inactive) | > 100 µM (inactive) |  | > 100 µM (inactive) | > 100 µM (inactive) |  | > 100 µM (inactive) |  | 91 µM (inactive) | > 100 µM (inactive)
O=C(O)[C@@H]1CCS(=O)(=O)N1 |  | > 100 µM (inactive) | > 100 µM (inactive) |  | > 100 µM (inactive) | > 100 µM (inactive) | > 100 µM (inactive) | > 100 µM (inactive) |  | > 100 µM (inactive) | > 100 µM (inactive) | > 100 µM (inactive) | > 100 µM (inactive) |  | > 100 µM (inactive) | > 100 µM (inactive) | > 100 µM (inactive) | > 100 µM (inactive)
CCCCNC(=O)C1=C(C)NC(C)=C(C(=O)NCCCC)C1 | > 100 µM (inactive) | > 100 µM (inactive) | 71.1 µM (inactive) | > 100 µM (inactive) | > 100 µM (inactive) |  | > 100 µM (inactive) | > 100 µM (inactive) | > 100 µM (inactive) | > 100 µM (inactive) | > 100 µM (inactive) | > 100 µM (inactive) | > 100 µM (inactive) | > 100 µM (inactive) | 58.7 µM (inactive) |  | > 100 µM (inactive) | > 100 µM (inactive)
CC(=O)OC[C@H]1CN(OC(C)=O)C[C@@H](n2cc(C)c(=O)[nH]c2=O)O1 | > 100 µM (inactive) | > 100 µM (inactive) | > 100 µM (inactive) | > 100 µM (inactive) |  | > 100 µM (inactive) | > 100 µM (inactive) | > 100 µM (inactive) | > 100 µM (inactive) | > 100 µM (inactive) | > 100 µM (inactive) | > 100 µM (inactive) | > 100 µM (inactive) |  | > 100 µM (inactive) |  | > 100 µM (inactive) | > 100 µM (inactive)
[O-][n+]1nc(N2CCOCC2)nc2ccccc21 | > 100 µM (inactive) | > 100 µM (inactive) | > 100 µM (inactive) | > 100 µM (inactive) | > 100 µM (inactive) | > 100 µM (inactive) | > 100 µM (inactive) | > 100 µM (inactive) | > 100 µM (inactive) | > 100 µM (inactive) | > 100 µM (inactive) | > 100 µM (inactive) | > 100 µM (inactive) |  | > 100 µM (inactive) |  |  | > 100 µM (inactive)
COc1cc(C)c(/C=C2/N=C(c3ccccc3)OC2=O)c([N+](=O)[O-])c1OC | > 100 µM (inactive) | > 100 µM (inactive) | > 100 µM (inactive) |  | > 100 µM (inactive) | > 100 µM (inactive) | > 100 µM (inactive) | > 100 µM (inactive) | > 100 µM (inactive) | > 100 µM (inactive) | > 100 µM (inactive) | > 100 µM (inactive) | > 100 µM (inactive) | 37.4 µM (inactive) | > 100 µM (inactive) |  | > 100 µM (inactive) | > 100 µM (inactive)
COc1ccc(NC(=O)CSc2nc(C)nc3c2sc(=S)n3-c2ccccc2)cc1 | > 10 µM (inactive) | > 10 µM (inactive) | > 10 µM (inactive) |  | > 10 µM (inactive) | > 10 µM (inactive) |  | 7.26 µM (inactive) |  | 7.46 µM (inactive) | > 10 µM (inactive) | > 10 µM (inactive) | > 10 µM (inactive) | 2.11 µM (inactive) | 7.67 µM (inactive) | > 10 µM (inactive) | 3.18 µM (inactive) | 8.07 µM (inactive)
OCC1OC(c2ccccc2)CC1O (centres undefined) | > 100 µM (inactive) | > 100 µM (inactive) | > 100 µM (inactive) | > 100 µM (inactive) | > 100 µM (inactive) |  | > 100 µM (inactive) | > 100 µM (inactive) |  | > 100 µM (inactive) | > 100 µM (inactive) | > 100 µM (inactive) | > 100 µM (inactive) |  | > 100 µM (inactive) | > 100 µM (inactive) | > 100 µM (inactive) | > 100 µM (inactive)
COc1cc(O)c2c(c1)OCC1(Cc3cc(OC)c(OC)cc31)C2=O (centres undefined) | > 100 µM (inactive) | 63.2 µM (inactive) | > 100 µM (inactive) | > 100 µM (inactive) | > 100 µM (inactive) | > 100 µM (inactive) | > 100 µM (inactive) | 30.5 µM (inactive) |  | 52 µM (inactive) | > 100 µM (inactive) | > 100 µM (inactive) | > 100 µM (inactive) | 23.3 µM (inactive) |  | 68.7 µM (inactive) | 40 µM (inactive) | > 100 µM (inactive)
O=C(c1ccccc1)N1C(=O)N(c2ccccc2)C(=N/c2ccccc2)/C1=N\c1ccccc1 | > 100 µM (inactive) | 4.18 µM (inactive) | > 100 µM (inactive) | > 100 µM (inactive) | 33.7 µM (inactive) | > 100 µM (inactive) | 29.9 µM (inactive) | > 100 µM (inactive) |  | 48.1 µM (inactive) | 13.5 µM (inactive) | > 100 µM (inactive) | > 100 µM (inactive) | 64.1 µM (inactive) | > 100 µM (inactive) | 17.8 µM (inactive) | 23.4 µM (inactive) | 
C/C(N)=C/C(=O)c1[nH]c(C(=O)O)cc1C1CCN(Cc2ccccc2)C1=O (centres undefined) | 39.6 µM (inactive) | 22.3 µM (inactive) |  | 23.2 µM (inactive) | 31.8 µM (inactive) | 37.6 µM (inactive) | 28.9 µM (inactive) | 21.3 µM (inactive) | 31.8 µM (inactive) | 40.8 µM (inactive) | 31.9 µM (inactive) | 46.1 µM (inactive) | 28.6 µM (inactive) | 17 µM (inactive) | 30.1 µM (inactive) |  | 47.8 µM (inactive) | 18.8 µM (inactive)
CC1OC(OC2C(O[C@H]3CC[C@@H]4C(=CC[C@@H]5[C@@]4(C)C(=O)C[C@]4(C)[C@@H]([C@H](C)CC[C@@H](O)C(C)(C)O)CC[C@@]54C)C3(C)C)OC(CO)C(O)C2O)C(O)C(O)C1O (some centres undefined) | > 100 µM (inactive) | > 100 µM (inactive) | > 100 µM (inactive) | > 100 µM (inactive) | > 100 µM (inactive) | > 100 µM (inactive) | > 100 µM (inactive) | > 100 µM (inactive) | > 100 µM (inactive) | > 100 µM (inactive) | > 100 µM (inactive) | 35.3 µM (inactive) | > 100 µM (inactive) | > 100 µM (inactive) | > 100 µM (inactive) |  | > 100 µM (inactive) | > 100 µM (inactive)
CN(CCCCCl)P(=O)(OCc1ccc([N+](=O)[O-])o1)OCC1OC(n2ccc(N)nc2=O)C(O)C1O (centres undefined) | 2.14 µM (inactive) | 12.9 µM (inactive) | 4.15 µM (inactive) | 14.2 µM (inactive) | 4.61 µM (inactive) | 2.39 µM (inactive) | 9.79 µM (inactive) | 13.9 µM (inactive) |  | 55 µM (inactive) | 3.24 µM (inactive) | 2.45 µM (inactive) | 4.17 µM (inactive) |  |  | 5.87 µM (inactive) | 1.05 µM (active) | 7.48 µM (inactive)
CC(=O)c1ccc(/N=N/c2ccc3nonc3c2N)cc1 | > 100 µM (inactive) | > 100 µM (inactive) | > 100 µM (inactive) | > 100 µM (inactive) | > 100 µM (inactive) | > 100 µM (inactive) | > 100 µM (inactive) | 83.4 µM (inactive) |  | > 100 µM (inactive) | > 100 µM (inactive) | > 100 µM (inactive) | > 100 µM (inactive) | > 100 µM (inactive) | 9.98 µM (inactive) | > 100 µM (inactive) | > 100 µM (inactive) | 52.8 µM (inactive)
